The text below walks through data of ChEMBL document CHEMBL5154820 (Eur J Med Chem, 2022).

In data set [1] the test system is HeLa. Kind of data set: Induction of cell cycle arrest in human HeLa cells assessed as S-phase at 6 nM measured after 24 hrs by propidium iodide staining based flow cytometric analysis analysis ( Rvb = 23.4%). In kind it is functional. On the technique in general: A flow cytometer gives signals particle by particle.
Data set [2] concerns HeLa. Kind of data set: Induction of apoptosis in human HeLa cells assessed as necrotic cells at 6 nM measured after 24 hrs by Annexin V-FITC/7-AAD staining based flow cytometric analysis (reference value: 0.45%). In kind it is functional.
The subject of data set [3] is HeLa. The data set can be described thus: Induction of cell cycle arrest in human HeLa cells assessed as accumulation of cells at G2/M phase at 3 nM after 24 hrs by propidium iodide staining based flow cytometric analysis (reference value: 17.1%). In kind it is functional.
In data set [4] the test system is HeLa. Kind of data set: Induction of cell cycle arrest in human HeLa cells assessed as < 2N cells at 1.5 nM measured after 24 hrs by propidium iodide staining based flow cytometric analysis analysis ( Rvb = 9.32%). In kind it is functional.
The test system of data set [5] is HeLa. The data set can be described thus: Induction of cell cycle arrest in human HeLa cells assessed as accumulation of cells at G2/M phase at 6 nM after 24 hrs by propidium iodide staining based flow cytometric analysis (reference value: 17.1%). In kind it is functional.
Data set [6] concerns HeLa. Kind of data set: Induction of cell cycle arrest in human HeLa cells assessed as 2N cells at 0.4 uM measured after 24 hrs by propidium iodide staining based flow cytometric analysis analysis ( Rvb = 47.4%). In kind it is functional.
Data set [7] can be described thus: Acute toxicity against ICR mouse assessed as morphological changes in spleen at 1000 mg/kg, ip measured after 14 days by H and E staining method. In kind it is organism-based. The following applies: in vivo, 336 h, time 14 day.
The target in data set [8] is T1, Tubulin beta (Homo sapiens) (UniProt P68371+Q9H4B7+Q13509+P04350+Q3ZCM7+P07437+Q13885+Q9BVA1+Q9BUF5+A6NNZ2). Kind of data set: Binding affinity to beta-tubulin colchicine binding site in human HeLa cells assessed as decrease of adduct formation by measuring gray value measured at 50 uM incubated for 2 hrs followed by addition of EBI measured after 1.5 hrs by EBI competition based Western blotting analysis. In kind it is cell-based. The following applies: time 3.5 hrs. In general terms: In western blotting, separated proteins are transferred to a membrane and probed.

A short description of data set [9]: Resistant factor, ratio of IC50 for antiproliferative activity against human HeLa/DDP cells to IC50 for human HeLa cells. In kind it is functional.
The nature of data set [10]: Resistant factor, ratio of IC50 for antiproliferative activity against human SiHa/DDP cells to IC50 for human SiHa cells. In kind it is functional.
Data set [11] in a line: Nephrotoxicity in BABL/c mouse assessed as increased creatinine level at 30 mg/kg, ip administered daily for 21 days relative to vehicle. In kind it is toxicity, organism-based. Conditions: in vivo, 504 h, time 21 day.
Data set [12] is described as follows: Toxicity against BABL/c mouse assessed as morphological changes in spleen at 30 to 60 mg/kg, ip administered daily for 21 days by H and E staining method. In kind it is organism-based. Conditions: in vivo, 504 h, dose 30-60 mg/kg, time 21 day.
The test system of data set [13] is HeLa. Kind of data set: Induction of cell cycle arrest in human HeLa cells assessed as S-phase at 0.4 uM measured after 24 hrs by propidium iodide staining based flow cytometric analysis analysis ( Rvb = 15.5%). In kind it is functional.
Data set [14] can be described thus: Toxicity against BABL/c mouse assessed as morphological changes in lung at 30 mg/kg, ip administered daily for 21 days followed by addition of 3 mg/kg DDP for every 2 days by H and E staining method. The following applies: in vivo, 504 h, time 21 day. In kind it is organism-based.
The test system of data set [15] is HeLa. Kind of data set: Induction of cell cycle arrest in human HeLa cells assessed as S-phase at 0.2 uM measured after 24 hrs by propidium iodide staining based flow cytometric analysis analysis ( Rvb = 15.5%). In kind it is functional.
Data set [16] in a line: Toxicity against BABL/c mouse assessed as morphological changes in spleen at 30 mg/kg, ip administered daily for 21 days followed by addition of 3 mg/kg DDP for every 2 days by H and E staining method. In kind it is organism-based. The following applies: in vivo, 504 h, time 21 day.
For data set [17], the system named is HeLa. Kind of data set: Induction of apoptosis in human HeLa cells assessed as early apoptotic cells at 0.1 uM measured after 24 hrs by Annexin V-FITC/7-AAD staining based flow cytometric analysis (reference value: 20.8%). In kind it is functional.
The subject of data set [18] is HeLa. The data set can be described thus: Induction of apoptosis in human HeLa cells assessed as early apoptotic cells at 0.2 uM measured after 24 hrs by Annexin V-FITC/7-AAD staining based flow cytometric analysis (reference value: 20.8%). In kind it is functional.
The nature of data set [19]: Toxicity against BABL/c mouse assessed as morphological changes in kidney at 30 mg/kg, ip administered daily for 21 days followed by addition of 3 mg/kg DDP for every 2 days by H and E staining method. In kind it is organism-based. The following applies: in vivo, 504 h, time 21 day.
A short description of data set [20]: Nephrotoxicity in BABL/c mouse assessed as increased urea nitrogen level at 30 mg/kg, ip administered daily for 21 days followed by addition of 3 mg/kg DDP for every 2 days relative to vehicle. In kind it is toxicity, organism-based. The following applies: in vivo, 504 h, time 21 day.
Data set [21] deals with HeLa. The data set can be described thus: Induction of apoptosis in human HeLa cells assessed as late apoptotic cells at 0.2 uM measured after 24 hrs by Annexin V-FITC/7-AAD staining based flow cytometric analysis (reference value: 8.51%). In kind it is functional.
Data set [22] is described as follows: Nephrotoxicity in BABL/c mouse assessed as increased uric acid level at 30 mg/kg, ip administered daily for 21 days followed by addition of 3 mg/kg DDP for every 2 days relative to vehicle. In kind it is toxicity, organism-based. The following applies: in vivo, 504 h, time 21 day.
Data set [23] can be described thus: Acute toxicity against ICR mouse assessed as morphological changes in lung at 1000 mg/kg, ip measured after 14 days by H and E staining method. In kind it is organism-based. The following applies: in vivo, 336 h, time 14 day.
Data set [24] can be described thus: Acute toxicity against ICR mouse assessed as regeneration of renal tubule in kidney at 1000 mg/kg, ip measured after 14 days by H and E staining method. In kind it is organism-based. Conditions: in vivo, 336 h, time 14 day.
Data set [25] is described as follows: Toxicity against BABL/c mouse assessed as morphological changes in liver at 30 mg/kg, ip administered daily for 21 days followed by addition of 3 mg/kg DDP for every 2 days by H and E staining method. In kind it is organism-based. The following applies: in vivo, 504 h, time 21 day.
For data set [26], the system named is HeLa. The data set can be described thus: Induction of cell cycle arrest in human HeLa cells assessed as < 2N cells at 0.2 uM measured after 24 hrs by propidium iodide staining based flow cytometric analysis analysis ( Rvb = 7.07%). In kind it is functional.
Data set [27] concerns HeLa. The data set can be described thus: Induction of cell cycle arrest in human HeLa cells assessed as >4N cells at 0.1 uM measured after 24 hrs by propidium iodide staining based flow cytometric analysis analysis ( Rvb = 8.84%). In kind it is functional.
The target in data set [28] is T1, Tubulin beta (Homo sapiens). Kind of data set: Binding affinity to beta-tubulin colchicine binding site in human HeLa cells assessed as decrease of adduct formation by measuring gray value measured at 1 uM incubated for 2 hrs followed by addition of EBI measured after 1.5 hrs by EBI competition based Western blotting analysis. In kind it is cell-based. Conditions: time 3.5 hrs.

Data set [29] can be described thus: Acute toxicity against ICR mouse assessed as chronic progressive nephropathy in kidney at 1000 mg/kg, ip measured after 14 days by H and E staining method. In kind it is organism-based. The following applies: in vivo, 336 h, time 14 day.
The subject of data set [30] is HeLa. Kind of data set: Antitumor activity against human HeLa cells xenografted in BABL/c mouse assessed assessed as reduction in tumor volume at 60 mg/kg, ip administered daily for 21 days and measured every 3 day ( Rvb = 2336 mm3). In kind it is functional. Conditions: time 21 day. (In general: A xenograft is tissue or cells of one species grown in another, often human tumour cells in immunodeficient mice.)

Data set [31] relates to HeLa. Kind of data set: Induction of cell cycle arrest in human HeLa cells assessed as < 2N cells at 0.4 uM measured after 24 hrs by propidium iodide staining based flow cytometric analysis analysis ( Rvb = 7.07%). In kind it is functional.
Data set [32] deals with HeLa. Kind of data set: Antimigratory activity against human HeLa cells at 0.4 uM measured after 24 hrs by scratch wound healing based fluorescence inverted microscopic analysis. In kind it is functional.

Each structure is given as a SMILES string.

Consider `COc1ccc(/C=C\c2cc(OC)c(OC)c(OC)c2)cc1O` [COMBRETASTATIN A4], for which the Activity in the data set with HeLa [1] was 15.9%; in the data set with HeLa [2], 0.62%; with HeLa [3], 28.2%; in the data set on HeLa [4], 4.37%; in the data set on HeLa [5] it was 35.3%.
For `CCOc1ccc(-c2cncnc2-c2cc(OC)c(OC)c(OC)c2)cc1Cl`, the Activity in the data set on HeLa [6] was 7.03%; in data set [7] it was “Non-Toxic”; in data set [8], 1.51; in [11] it was 31%; in data set [12] it was “Non-Toxic”; in the data set on HeLa [13], 11.4%. In addition, the Activity entry is “Non-Toxic” in data set [14]; 16.6% in the data set on HeLa [15]; “Non-Toxic” in data set [16]; 35.9% with HeLa [17]; 66.4% in the data set on HeLa [18]; “Non-Toxic” in data set [19]. Further, the Activity in data set [20] was 1.3%; with HeLa [21], 6.7%; in data set [22], 16%; in [23] it was “Non-Toxic”; in data set [24], “Non-Toxic”; in data set [25], “Non-Toxic”. The Activity with HeLa [26] is 0.59%; in the data set with HeLa [27], 21.6%; in data set [28], 0.53; in data set [29], “Non-Toxic”; in the data set on HeLa [30], 1083 mm3; in the data set on HeLa [31] it was 0.26%. This compound displayed an Activity in the data set on HeLa [32] of 50%. In addition, the “Ratio IC50” value stood at 79.2 in data set [9] and 41.9 in data set [10].
